Read-outs that look alike come from different tables or passages of the source.
Tested on: aorta rings
Test: Vasorelaxant effect in vitro (phenylephrine-contracted rabbit aorta rings)
Conditions: Oryctolagus cuniculus, read-out: IC50 (concentration necessary to reduce the level of contraction by 50%)
Description: B-1. Vasorelaxant Effect in Vitro
Rabbits are stunned by a blow to the back of the neck and are exsanguinated. The aorta is removed, freed of adherent tissue, divided into rings 1.5 mm wide and placed singly in 5 ml organ baths with carbogen-gassed Krebs-Henseleit solution of the following composition (in each case mM): NaCl: 119; KCl: 4.8; CaCl2×2 H2O: 1; MgSO4×7 H2O: 1.4; KH2PO4: 1.2; NaHCO3: 25; glucose: 10, under an initial tension at 37° C. The force of contraction is detected with Statham UC2 cells, amplified and digitized via A/D converters (DAS-1802 HC, Keithley Instruments Munich), and recorded in parallel on chart recorders. A contraction is induced by adding phenylephrine to the bath cumulatively in increasing concentration. After several control cycles, the substance to be investigated is added in each further run in increasing dosage each time, and the level of contraction is compared with the level of contraction achieved in the last preceding run. The concentration necessary to reduce the level of contraction by 50% (IC50) is calculated therefrom. The standard application volume is 5 μl, and the DMSO content in the bath solution corresponds to 0.1%.

[1] = rabbit aorta rings, contraction induced by phenylephrine, 37° C., 0.1% DMSO

| SMILES | IC50 [1] [nM] | IC50 [nM] |
| --- | --- | --- |
| Nc1nc(N)nc(-n2nc(Cc3ccccc3F)c3ccccc32)n1 [Example 2, 6-[3-(2-Fluorobenzyl)-1H-indazol-1-yl]-1,3,5-triazine-2,4-diamine] | 300 |  |
| Nc1nc(N)nc(-n2nc(Cc3ccccc3F)c3ncccc32)n1 [Example 1, 6-[3-(2-Fluorobenzyl)-1H-pyrazolo[4,3-b]pyridin-1-yl]-1,3,5-triazine-2,4-diamine] | 240 |  |
| Nc1nc(N)nc(-c2nc(Cc3ccccc3F)n3ccccc23)n1 [Example 3, 6-[3-(2-Fluorobenzyl)imidazo[1,5-a]pyridin-1-yl]-1,3,5-triazine-2,4-diamine] | 2900 |  |

Results, then the compound that gave them:

| IC50 [1] [nM] | IC50 [nM] | SMILES |
| --- | --- | --- |
|  | 215 | Nc1nc(N)nc(-c2nc(Cc3ccccc3F)c3ncccn23)n1 [Example 4, 6-[8-(2-Fluorobenzyl)imidazo[1,5-a]pyrimidin-6-yl]-1,3,5-triazine-2,4-diamine] |
|  | 1050 | Nc1cc(N)nc(-c2nc(Cc3ccccc3F)c3ncccn23)n1 [Example 7, 2-[8-(2-Fluorobenzyl)imidazo[1,5-a]pyrimidin-6-yl]pyrimidine-4,6-diamine] |
